Experimental data reported in US20240199576A1, “NOVEL CYCLOPENTA[C]PYRROL NEGATIVE ALLOSTERIC MODULATORS OF NR2B” (Novartis AG, priority 2021, published 2024).

Tests used:
NR2B = NR2B (Rattus norvegicus (Rat), UniProt Q00960); assay: NR2B rat cortical neuron calcium influx assay; type: cell-based; conditions: rat cortical neurons, glutamate and glycine stimulated calcium influx, 2 hours compound incubation
Excerpt: Example 1: NR2B Rat Cortical Neuron Calcium Influx Assay Protocol
Embryonic day 18 timed pregnant Sprague Dawley rats were euthanized according to Institutional Animal Care and Use Committee (IACUC) protocol. After cutting medially through the skin and exposing the uterus and embryos, fetuses were removed and placed in cold Hibernate medium. Each embryo's brain was extracted and cerebral cortices were isolated by removing the midbrain and meninges. The dissected cortices were then dissociated into the neurons using papain dissociation system (Worthington Biochemical Corporation) according the manufacturer's protocol.
Dissociated neurons were counted and plated into 384-well poly-D-lysine coated plates (Corning® BioCoat™) at a density of 20,000 cells/well in 30 μL of Neurobasal/B27 complete medium. Neurons were cultured at 37° C. for 2 days. On the assay day, medium was removed and cells were incubated with 20 μL/well of calcium dye (Calcium 6 Assay Kit, Molecular Devices) suspended in HBSS with 1.8 mM Ca^2+ (Ca-HBSS) according to the manufacturer's instruction.
Compounds of interest from 10 mM stock were serially diluted into 3× of desired concentrations in 1.8 mM Ca-HBSS, and 10 μL were added to the wells. Compound and the neurons were incubated at 37° C. for 2 hours in the dark.
On FDSS7000EX (Hamamatsu Photonics), a fluorescence measuring instrument, 10 μL of 4× ligand solution containing glutamate and glycine made in 1.8 mM Ca^2+-HBSS were added to each well. The fluorescent signals were collected before and after the addition of ligands for a total of 2 minutes. The data were converted to a ratio of the peak fluorescence to the fluorescence at the beginning of the measurement.
Each data point was measured in duplicates. Dose response curves were used to identify IC50 and maximal inhibition values. IC50 represents the concentration in μM of compound at which there is a half-maximal compound effect. Maximal inhibition of a compound is expressed as a percent of the highest inhibition of activity over a no compound control.

hERG = hERG (Homo sapiens (Human), UniProt Q12809); assay: hERG Qpatch assay; type: cell-based; conditions: hERG expressing CHO-K1 cells, automated patch clamp, tail current
Sequence of hERG (Q12809 whole entry): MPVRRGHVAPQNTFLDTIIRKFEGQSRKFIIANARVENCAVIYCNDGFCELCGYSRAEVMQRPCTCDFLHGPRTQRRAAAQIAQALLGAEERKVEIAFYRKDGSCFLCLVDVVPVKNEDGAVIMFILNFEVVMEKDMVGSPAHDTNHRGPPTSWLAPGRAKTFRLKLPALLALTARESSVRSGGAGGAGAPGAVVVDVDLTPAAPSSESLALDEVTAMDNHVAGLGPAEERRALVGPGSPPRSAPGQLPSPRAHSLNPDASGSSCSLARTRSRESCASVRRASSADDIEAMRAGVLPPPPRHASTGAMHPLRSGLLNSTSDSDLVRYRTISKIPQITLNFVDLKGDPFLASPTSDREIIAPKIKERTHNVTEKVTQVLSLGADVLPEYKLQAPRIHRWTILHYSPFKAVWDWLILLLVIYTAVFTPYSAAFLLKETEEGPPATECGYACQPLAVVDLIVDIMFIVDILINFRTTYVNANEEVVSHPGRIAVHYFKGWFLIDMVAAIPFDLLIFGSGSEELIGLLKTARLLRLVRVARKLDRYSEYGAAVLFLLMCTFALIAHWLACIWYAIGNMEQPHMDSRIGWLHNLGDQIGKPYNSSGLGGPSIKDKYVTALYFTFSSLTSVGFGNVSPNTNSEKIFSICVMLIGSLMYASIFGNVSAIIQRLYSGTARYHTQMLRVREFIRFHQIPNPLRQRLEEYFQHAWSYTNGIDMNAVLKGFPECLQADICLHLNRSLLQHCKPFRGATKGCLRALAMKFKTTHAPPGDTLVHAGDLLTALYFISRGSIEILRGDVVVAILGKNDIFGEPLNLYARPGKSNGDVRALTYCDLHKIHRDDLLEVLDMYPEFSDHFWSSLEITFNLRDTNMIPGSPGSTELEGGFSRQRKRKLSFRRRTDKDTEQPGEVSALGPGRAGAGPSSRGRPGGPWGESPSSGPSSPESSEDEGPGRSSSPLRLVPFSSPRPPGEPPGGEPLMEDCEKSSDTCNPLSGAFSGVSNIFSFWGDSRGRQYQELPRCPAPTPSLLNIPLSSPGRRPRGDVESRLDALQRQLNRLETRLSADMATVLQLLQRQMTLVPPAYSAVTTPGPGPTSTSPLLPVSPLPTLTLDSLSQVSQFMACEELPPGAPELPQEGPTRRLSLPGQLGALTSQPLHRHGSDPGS
Method: This assay was performed by the method described in Skepper et al., J. Med. Chem. 2020, 63, 7773-7816:
hERG expressing cell lines were produced in-house at Novartis using CHO-K1 T-Rex inducible plasmid system (Invitrogen) as described previously (Cao et al., Assay Drug Dev. Technol. 2010, 8, 766-780). Cell lines were maintained in Ham's F12 nutrient mixture containing 10% FBS, blasticidin ([…]; InvivoGen), hygromycin B ([…]; InvivoGen), Zeocin ([…], Invitrogen), and neomycin ([…], Invitrogen) using SelecT automated cell culture system (TAP Biosystems, Cambridge, U.K.). hERG and hCav1.2 channels expression was induced with tetracycline (0.25-1 μg/mL, Invitrogen) at least 24 h prior to the experiment.
hERG currents were recorded using the Qpatch automated patch clamp systems (Sophion Bioscience Inc., North Brunswick, NJ) in the whole (single) cell configuration. hERG expressing CHO-K1 cells were harvested with Detachin (Genlantis) and stored in the modified serum-free SFM-2 media (Life Technologies) at room temperature. The extracellular solution contained (in mM) NaCl (145), KCl (4), MgCl2 (1), CaCl2 (2), and HEPES (10), pH 7.4, with NaOH. The intracellular solution contained KCl (135), MgCl2 (1.75), CaCl2 (5.4), EGTA (10), K2-ATP (4), and HEPES (10), pH 7.2, with KOH. After whole cell configuration was achieved, the cell was held at −90 mV, and a 0.1 s pulse to −50 mV was delivered to measure the leaking current, which was subtracted from the tail current online. Then the cell was depolarized to +20 mV for 4 s (prepulse), followed by a 4 s test pulse to −50 mV to reveal the hERG tail current. To monitor changes in the current amplitude, this voltage protocol was repeatedly applied every 20 s. Test compounds were first diluted in DMSO for six dose-response experiments and then dissolved in the extracellular solution using Freedom EVO liquid handling robotic system (Tecan, Männedorf, Switzerland). The final DMSO concentration in samples was 0.3% v/v. Amitriptyline (Sigma) was tested as a positive control. Data were analyzed using in-house developed MatLab-based program (MathWorks, Natick, MA).

Sequence of NR2B (Q00960 27-1482, other chains not shown): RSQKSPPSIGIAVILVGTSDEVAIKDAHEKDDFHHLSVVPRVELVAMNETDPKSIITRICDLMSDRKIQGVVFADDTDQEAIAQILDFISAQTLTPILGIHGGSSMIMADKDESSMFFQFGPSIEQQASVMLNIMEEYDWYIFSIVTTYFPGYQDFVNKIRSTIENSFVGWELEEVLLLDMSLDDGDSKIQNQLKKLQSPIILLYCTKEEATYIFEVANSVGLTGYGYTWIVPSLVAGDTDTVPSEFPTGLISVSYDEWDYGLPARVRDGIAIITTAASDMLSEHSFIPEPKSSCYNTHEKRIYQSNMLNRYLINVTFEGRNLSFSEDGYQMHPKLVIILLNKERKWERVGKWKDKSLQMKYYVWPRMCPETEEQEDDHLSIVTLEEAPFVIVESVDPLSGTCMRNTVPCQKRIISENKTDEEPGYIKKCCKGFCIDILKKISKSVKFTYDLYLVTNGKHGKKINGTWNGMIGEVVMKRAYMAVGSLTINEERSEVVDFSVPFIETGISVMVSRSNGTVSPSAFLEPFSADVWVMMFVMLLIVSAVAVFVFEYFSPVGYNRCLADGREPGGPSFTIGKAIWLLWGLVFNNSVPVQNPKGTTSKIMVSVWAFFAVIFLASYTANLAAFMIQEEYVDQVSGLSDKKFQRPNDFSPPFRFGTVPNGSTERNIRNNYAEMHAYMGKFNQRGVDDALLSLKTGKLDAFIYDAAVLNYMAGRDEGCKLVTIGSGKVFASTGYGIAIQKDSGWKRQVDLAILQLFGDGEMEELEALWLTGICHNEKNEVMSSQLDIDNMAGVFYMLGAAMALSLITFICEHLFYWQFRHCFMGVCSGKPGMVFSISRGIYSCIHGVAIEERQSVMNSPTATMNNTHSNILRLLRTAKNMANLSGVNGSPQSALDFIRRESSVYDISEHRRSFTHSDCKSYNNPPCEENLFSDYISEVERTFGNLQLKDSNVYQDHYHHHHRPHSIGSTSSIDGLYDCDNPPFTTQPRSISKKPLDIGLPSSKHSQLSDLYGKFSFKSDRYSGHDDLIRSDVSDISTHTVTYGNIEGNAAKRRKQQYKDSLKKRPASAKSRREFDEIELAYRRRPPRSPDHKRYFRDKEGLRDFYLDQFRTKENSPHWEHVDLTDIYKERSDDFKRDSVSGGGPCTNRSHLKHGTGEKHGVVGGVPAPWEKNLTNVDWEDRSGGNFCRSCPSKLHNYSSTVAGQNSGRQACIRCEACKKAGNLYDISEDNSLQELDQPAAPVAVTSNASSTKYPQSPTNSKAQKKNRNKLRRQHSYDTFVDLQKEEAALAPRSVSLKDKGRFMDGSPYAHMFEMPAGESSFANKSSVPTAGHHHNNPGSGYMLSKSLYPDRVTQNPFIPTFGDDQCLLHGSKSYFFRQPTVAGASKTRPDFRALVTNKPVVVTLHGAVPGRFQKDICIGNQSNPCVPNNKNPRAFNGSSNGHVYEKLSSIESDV

SMILES | IC50 (NR2B) | IC50 (hERG)
Oc1ccc(C(O)CN2C[C@@H]3C[C@@H](Oc4ccccc4F)[C@@H](O)[C@]3(O)C2)nc1 (single isomer, unassigned) [Example 2D] | 950 nM | –
Oc1ccc(C(O)CN2C[C@@H]3C[C@@H](Oc4ccccc4F)[C@@H](O)[C@]3(O)C2)nc1 (single isomer, unassigned) [Example 2C] | 770 nM | –
Oc1ccc(C(O)CN2C[C@H]3C[C@H](Oc4ccccc4)C[C@H]3C2)nc1 (single isomer, unassigned) [Table 3 from WO 2016/049165 (isomer 1), reference compound] | – | 2000 nM
Oc1ccc(C(O)CN2C[C@H]3C[C@H](Oc4ccccc4F)C[C@@]3(O)C2)nc1 (single isomer, unassigned) [Example 1C] | 1.1 nM | 22000 nM
Oc1ccc(C(O)CN2C[C@H]3C[C@H](Oc4ccccc4)[C@H](O)[C@@]3(O)C2)nc1F (some centres unmarked) [Example 3D] | 24 nM | –
Oc1ccc(C(O)CN2C[C@H]3C[C@H](Oc4ccccc4)C[C@H]3C2)nc1 (single isomer, unassigned) [Table 3 of WO 2016/049165 (isomer 2), reference compound] | – | 2700 nM
Oc1c(F)cc(C(O)CN2C[C@H]3C[C@H](Oc4ccccc4)[C@H](O)[C@@]3(O)C2)cc1F (some centres unmarked) [Example 5B] | 28 nM | –
Oc1ccc(C(O)CN2C[C@@H]3C[C@@H](Oc4ccccc4)[C@@H](O)[C@]3(O)C2)nc1Cl (some centres unmarked) [Example 4A] | > 10000 nM | –
Oc1ccc(C(O)CN2C[C@H]3C[C@H](Oc4ccccc4)C[C@@]3(O)C2)nc1 (single isomer, unassigned) [Example 7C] | 2.4 nM | 28000 nM
Oc1ccc(C(O)CN2C[C@H]3C[C@H](Oc4ccccc4F)[C@H](O)[C@@]3(O)C2)nc1 (single isomer, unassigned) [Example 2A] | 11 nM | –
Oc1ccc(C(O)CN2C[C@H]3C[C@H](Oc4ccccc4)C[C@@]3(O)C2)nc1 (single isomer, unassigned) [Example 7D] | 3.2 nM | 19000 nM
Oc1ccc(C(O)CN2C[C@@H]3C[C@@H](Oc4ccccc4)[C@@H](O)[C@]3(O)C2)nc1F (some centres unmarked) [Example 3A] | > 10000 nM | –
Oc1c(F)cc(C(O)CN2C[C@@H]3C[C@@H](Oc4ccccc4)[C@@H](O)[C@]3(O)C2)cc1F (single isomer, unassigned) [Example 5D] | 3700 nM | –
Oc1ccc(C(O)CN2C[C@H]3C[C@H](Oc4ccccc4F)[C@H](O)[C@@]3(O)C2)nc1 (single isomer, unassigned) [Example 2B] | 2.2 nM | –
Oc1ccc(C(O)CN2C[C@H]3C[C@H](Oc4ccccc4)[C@H](O)[C@@]3(O)C2)nc1Cl (single isomer, unassigned) [Example 4C] | 31 nM | –
Oc1c(F)cc(C(O)CN2C[C@H]3C[C@H](Oc4ccccc4)C[C@H]3C2)cc1F (mixture of isomers) [Mixture of two isomers at benzylic position, reference compound] | – | 2800 nM
Oc1c(F)cc([C@H](O)CN2C[C@H]3C[C@H](Oc4ccccc4)C[C@@]3(O)C2)cc1F [Example 10D, (3aS,5S,6aR)-2-((S)-2-(3,5-difluoro-4-hydroxyphenyl)-2-hydroxyethyl)-5-phenoxyhexahydrocyclopenta[c]pyrrol-3a(1H)-ol] | 6 nM | 25000 nM
Oc1ccc(C(O)CN2C[C@H]3C[C@H](Oc4ccccc4F)C[C@@]3(O)C2)nc1 (single isomer, unassigned) [Example 1B] | 0.74 nM | 14000 nM
Oc1c(F)cc(C(O)CN2C[C@@H]3C[C@@H](Oc4ccccc4)[C@@H](O)[C@]3(O)C2)cc1F (single isomer, unassigned) [Example 5C] | 900 nM | –
Oc1ccc(C(O)CN2C[C@H]3C[C@H](Oc4ccccc4)[C@H](O)[C@@]3(O)C2)nc1Cl (single isomer, unassigned) [Example 4D] | 35 nM | –
Oc1c(F)cc([C@@H](O)CN2C[C@H]3C[C@H](Oc4ccccc4)C[C@@]3(O)C2)cc1F [Example 10C] | 14 nM | 22000 nM
Oc1ccc(CCN2C[C@H]3C[C@H](Oc4cccnc4F)C[C@@]3(O)C2)nc1 [Example 20] | 820 nM | –
Oc1ccc(CCN2C[C@H]3C[C@H](Oc4ccc(F)cc4F)C[C@@]3(O)C2)nc1 [Example 19] | 18 nM | –
